The values that follow come from patent publication US20240024317A1, “CANCER TREATMENT USING BOSENTAN IN COMBINATION WITH A CHECKPOINT INHIBITOR” (Materia Therapeutics Inc., priority 2020, published 2024).

Molecules are shown by their SMILES.

Assay [1] relates to 4T1 tumors. Briefly: Dynamic contrast-enhanced ultrasound (DCEUS) perfusion measures. It counts as in vivo, mice. To be noted: bosentan treated versus control or immunotherapy cocktail only. As to the method:
Dynamic contrast-enhanced ultrasound (DCEUS). Tumor associated vascular perfusion was assessed with DCEUS after bolus injection of contrast agents (8 μl of sulphur hexafluoride microbubbles encapsulated by a phospholipid shell with a mean diameter of 2.5 μm, retro-orbital administration). Ultrasound scanning of tumor was performed using the L12-5 transducer. Contrast first harmonic signals were received at 8 MHz with a mechanical index of 0.06. For all subjects the depth was set to 3 cm allowing measurements of the full depth of the tumor. Gain was set at 90% for each recording. Focus was optimized and standardized for each subject when finding the tumor area using B-mode imaging. Real-time power modulation imaging was started after flashing imaging with a high mechanical index to destroy the microbubbles in tumor tissue to peak contrast intensity to allow visualization of bubble replenishment. Image analysis was performed offline using an ultrasound quantification and analysis software (QLAB, Phillips Medical Systems). From the produced time intensity curves, we used as measures of perfusion the Mean transit time and the time required to reach the peak intensity (Rise time). […]

The test system of assay [2] is 4T1 or E0771 tumors. The assay can be described thus: Tumor growth under bosentan monotherapy (dose response studies). To be noted: bosentan monotherapy at any dose. The assay is classed as in vivo, mice. On the procedure: Mice bearing syngeneic, orthotopic triple negative breast cancer (TNBC) were treated with a range of sub-therapeutic doses of bosentan, from 0.2 mg/kg to 10 mg/kg of body weight. Orthotopic models for murine mammary tumors were generated by implantation of 5×10^4 4T1 or E0771 cancer cells in 40 μl of serum-free medium into the third mammary fat pad of 6-8-week-old BALB/c and C57BL/6 female mice, respectively. 4T1 (ATCC® CRL-2539TH) and E0771 (94A001, CH3 BioSystems) mouse breast adenocarcinoma cell lines were purchased form ATCC and CH3 BioSystems, respectively. The cells were maintained at 37° C./5% CO2 in Roswell Park Memorial Institute medium (RPMI-1640, LM-R1637, Biosera) supplemented with 10% fetal bovine serum (FBS, FB-1001H, biosera) and 1% antibiotics (A5955, Sigma). Bosentan (bosentan Hydrate (S3051, Selleckchem) was dissolved in ddH2O containing 2% DMSO (GK2245, Glentham Life Science), 30% PEG300 (S6704, Selleckchem) and 2% Tween 80 (S6702, Selleckchem)) 1 mg/kg, 5 mg/kg, 10 mg/kg or equal volume of diluent (control group) was administered by intraperitoneal injection (i.p.) once a day for 10 days, starting from once the tumor volumes reached an average size of 100 mm^3. Tumors were excised when they reached an average size of 500 mm^3. Tissue stiffness was then measured non-invasively and longitudinally using ultrasound elastography. […]

The subject of assay [3] is E0771 tumors. Briefly: Atomic force microscopy (AFM) Young's modulus and stiffness fingerprint of excised tumors. The assay is classed as in vivo, mice.
The test system of assay [4] is E0771 cancer cells. Briefly: Rechallenge of surviving mice with a second tumor cell inoculation. The assay is classed as in vivo. On the procedure: To determine if a stiffness-reducing and hypoxia-reducing (blood flow-increasing) regimen of bosentan could enhance the efficacy of an ICB cocktail of anti-PD-1 (mouse monoclonal anti-PD-1 CD279, clone RMP1-14, BioXCell) and anti-CTLA-4 (mouse monoclonal anti-CTLA-4 CD152, clone 9D9, BioXCell) antibodies, mice bearing primary tumors in a neo-adjuvant setting were administered various treatments. Therapy was administered before removing the primary tumors surgically to assess mice survival against spontaneous metastases that arose on treatment. For the combinatorial treatment with bosentan and Immunotherapy studies, bosentan 1 mg/kg or equal volume of diluent (control group) was administered by intraperitoneal injection (i.p.) once a day for 14 days, starting from once the tumor volumes reached an average size of 5 mm diameter. Immunotherapy was administrated as a cocktail of 10 mg/kg anti-PD-1 (CD279, clone RMP1-14, BioXCell) and 5 mg/kg anti-CTLA-4 (CD152, clone 9D9) following dilution in the recommended InVivoPure pH 7.0 Dilution Buffer (BioXCell). […] Planar dimensions (x, y) of tumor were monitored every 2-3 days using a digital caliper and tumor volume was estimated from the volume of an ellipsoid and assuming that the third dimension, z, is equal to x y. […]

As for `COc1ccccc1Oc1c(NS(=O)(=O)c2ccc(C(C)(C)C)cc2)nc(-c2ncccn2)nc1OCCO` [bosentan, 4-tert-butyl-N-[6-(2-hydroxy-ethoxy)-5-(2-methoxy-phenoxy)-2-(pyrimidin-2-yl)pyrimidin-4-yl] benzenesulfonamide], in assay [1], the “mean transit time (DCEUS)” value is recorded as “higher” and the “rise time (DCEUS)” value is reported as “higher”. Further, in assay [2], the tumor growth result is reported as “did not affect”. For the same compound, the “tissue stiffness, Young's modulus by atomic force microscopy” value in assay [3] (1 mg/kg daily bosentan, excised E0771 tumors) is recorded as “confirmed”. Also, the “mechanical fingerprint of the tissue (AFM stiffness histogram)” value in assay [3] (tumors treated with 1 mg/kg) is “large contribution from cancer cells and little contribution from collagen”. In assay [3] (tumors treated with 10 mg/kg), the “mechanical fingerprint of the tissue (AFM stiffness histogram)” value was “heterogenous collagen contribution”. For the same compound, the “mice with tumors appearing after rechallenge” value in assay [4] (five surviving mice (bosentan plus ICB) rechallenged) is “two out of the five”. Also, the “tumor growth rate after rechallenge” value in assay [4] (five surviving mice (bosentan plus ICB) versus healthy age-matched control mice) was “grew much slower”.
